The target in assay [1] is T1, human cloned 5-HT2C receptor (Homo sapiens, UniProt P28335).
T1 construct: expressed in transfected cells; host or cells: CHO cells
T1 sequence (P28335 33-458): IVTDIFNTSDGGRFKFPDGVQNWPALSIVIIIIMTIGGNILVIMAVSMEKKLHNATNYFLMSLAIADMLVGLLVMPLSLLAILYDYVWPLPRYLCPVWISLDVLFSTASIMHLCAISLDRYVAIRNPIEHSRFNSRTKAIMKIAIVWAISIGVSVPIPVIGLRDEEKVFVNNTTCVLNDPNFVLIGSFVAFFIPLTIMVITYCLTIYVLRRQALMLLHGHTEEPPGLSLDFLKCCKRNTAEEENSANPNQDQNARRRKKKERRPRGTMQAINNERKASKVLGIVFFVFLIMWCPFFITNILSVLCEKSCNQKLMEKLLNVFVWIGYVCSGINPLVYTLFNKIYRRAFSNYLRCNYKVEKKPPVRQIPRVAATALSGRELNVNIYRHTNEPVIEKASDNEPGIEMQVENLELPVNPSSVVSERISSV
The experiment in a line: In vitro binding affinity for 5-HT2C receptor (radioligand binding). The conditions noted are these: human cloned 5-HT2C receptor, radioligand binding; read-out: h-5HT2C (converted). How it is done:
(§1) During the incubation, the radioligands bind to the receptor. When equilibrium of binding is reached, the receptor bound radioactivity is separated from the non-bound radioactivity, and the receptor bound activity is counted. The interaction of the test compounds with the receptors is assessed in competition binding experiments. Various concentrations of the test compound are added to the incubation mixture containing the tissue preparation and the radioligand. Binding of the radioligand will be inhibited by the test compound in proportion to its binding affinity and its concentration.

Assay [2] concerns the target T2, NET (Rattus norvegicus, UniProt Q9WTR4).
T2 construct: Cortex from rat brain was collected and homogenised; from tissue; host or cells: rat brain cortex
Nature of the assay: In vitro determination of NET reuptake inhibition ([3H]Nixosetine binding, rat brain cortex). The conditions noted are these: rat brain cortex, [3H]Nixosetine; read-out: NET Reuptake Inhibition (converted). Here is the method: Cortex from rat brain was collected and homogenised using an Ultra-Turrax T25 and a Dual homogeniser in ice-cold homogenising buffer containing Tris, NaCl and KCl (50 mM, 120 mM and 5 mM, respectively, pH 7.4) prior to dilution to an appropriate protein concentration optimised for specific and non-specific binding. […] Membrane-bound activity was detected by filtration through a Packard Filtermate harvester onto GF/B Unifilterplates, washed with ice-cold Tris-HCl buffer, containing NaCl and KCl (50 mM, 120 mM and 4 mM; pH 7.4; 6×0.5 ml). Filters were allowed to dry for 24 h before adding scintillation fluid. Scintillation fluid was allowed to saturate filters for 24 h before counting in a Topcount scintillation counter. Percentage specific bound and competition binding curves were calculated using S-Plus software (Insightful).

For assay [3], the target named is T3, human Dopamine D2L receptor (Homo sapiens, UniProt P14416).
T3 construct: expressed in transfected cells; host or cells: CHO cells
The experiment in a line: In vitro binding affinity for human D2L receptor ([3H]Spiperone). To be noted: human D2L receptor-transfected CHO cell membranes, [3H]Spiperone; read-out: h-D2L (converted). Here is the method:
Frozen membranes of human Dopamine D2L receptor-transfected CHO cells were thawed, briefly homogenised using an Ultra-Turrax T25 homogeniser and diluted in Tris-HCl assay buffer containing NaCl, CaCl2, MgCl2, KCl (50, 120, 2, 1, and 5 mM respectively, adjusted to pH 7.7 with HCl) to an appropriate protein concentration optimised for specific and non-specific binding. Radioligand [^3H]Spiperone (NEN, specific activity ˜70 Ci/mmol) was diluted in assay buffer at a concentration of 2 nmol/L. Prepared radioligand (50 μl), along with 50 μl of either the 10% DMSO control, Butaclamol (10^−6 mol/l final concentration), or compound of interest, was then incubated (30 min, 37° C.) with 400 μl of the prepared membrane solution. Membrane-bound activity was filtered through a Packard Filtermate harvester onto GF/B Unifilterplates and washed with ice-cold Tris-HCl buffer (50 mM; pH 7.7; 6×0.5 ml). Filters were allowed to dry before adding scintillation fluid and counting in a Topcount scintillation counter. Percentage specific bound and competition binding curves were calculated using S-Plus software (Insightful).

Assay [4] has as its target T4, human cloned 5-HT2A receptor (Homo sapiens, UniProt P28223).
T4 construct: expressed in transfected cells; host or cells: L929 cells
Nature of the assay: In vitro binding affinity for 5-HT2A receptor (radioligand binding). To be noted: human cloned 5-HT2A receptor, radioligand binding; read-out: h-5HT2A (converted). How it is done: as §1, with “concentration. The affinities of the compounds for the 5-HT2 receptors were measured by means of radioligand binding studies conducted with: (a) human cloned 5-HT2A receptor, expressed in L929 cells using [^125I]R91150 as radioligand and (b) human cloned 5-HT2C receptor, expressed in CHO cells using [^3H]mesulergine as radioligand.” for “concentration.”

SMILES strings stand for the structures.

T3 sequence (P14416 whole entry): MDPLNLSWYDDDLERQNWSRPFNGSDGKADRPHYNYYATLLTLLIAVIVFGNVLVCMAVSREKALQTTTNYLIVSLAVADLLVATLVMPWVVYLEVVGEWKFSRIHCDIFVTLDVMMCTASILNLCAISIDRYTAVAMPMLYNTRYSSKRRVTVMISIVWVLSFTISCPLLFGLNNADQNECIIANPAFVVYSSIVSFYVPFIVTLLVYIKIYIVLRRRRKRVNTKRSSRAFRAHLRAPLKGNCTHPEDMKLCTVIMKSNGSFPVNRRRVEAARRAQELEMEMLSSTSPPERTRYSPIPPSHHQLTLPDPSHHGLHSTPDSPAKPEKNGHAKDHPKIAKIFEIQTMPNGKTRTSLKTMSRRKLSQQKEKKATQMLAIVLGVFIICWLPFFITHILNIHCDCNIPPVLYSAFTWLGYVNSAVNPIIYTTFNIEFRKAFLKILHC
T2 sequence (Q9WTR4 1-597): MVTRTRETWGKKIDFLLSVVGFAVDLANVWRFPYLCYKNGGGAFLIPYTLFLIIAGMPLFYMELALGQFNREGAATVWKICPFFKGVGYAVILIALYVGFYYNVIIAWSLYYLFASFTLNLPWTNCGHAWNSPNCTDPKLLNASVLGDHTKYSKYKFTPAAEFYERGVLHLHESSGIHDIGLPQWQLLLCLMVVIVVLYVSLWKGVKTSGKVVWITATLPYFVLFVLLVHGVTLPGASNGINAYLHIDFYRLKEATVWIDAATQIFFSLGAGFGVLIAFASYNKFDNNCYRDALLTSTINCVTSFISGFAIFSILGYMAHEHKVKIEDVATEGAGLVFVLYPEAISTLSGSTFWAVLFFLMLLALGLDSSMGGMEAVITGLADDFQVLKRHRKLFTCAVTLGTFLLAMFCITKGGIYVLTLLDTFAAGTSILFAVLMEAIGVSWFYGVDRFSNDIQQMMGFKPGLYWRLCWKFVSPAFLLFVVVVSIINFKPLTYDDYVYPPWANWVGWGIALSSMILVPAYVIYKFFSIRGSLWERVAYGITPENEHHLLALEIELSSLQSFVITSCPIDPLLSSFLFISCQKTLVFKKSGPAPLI
T4 sequence (P28223 whole entry): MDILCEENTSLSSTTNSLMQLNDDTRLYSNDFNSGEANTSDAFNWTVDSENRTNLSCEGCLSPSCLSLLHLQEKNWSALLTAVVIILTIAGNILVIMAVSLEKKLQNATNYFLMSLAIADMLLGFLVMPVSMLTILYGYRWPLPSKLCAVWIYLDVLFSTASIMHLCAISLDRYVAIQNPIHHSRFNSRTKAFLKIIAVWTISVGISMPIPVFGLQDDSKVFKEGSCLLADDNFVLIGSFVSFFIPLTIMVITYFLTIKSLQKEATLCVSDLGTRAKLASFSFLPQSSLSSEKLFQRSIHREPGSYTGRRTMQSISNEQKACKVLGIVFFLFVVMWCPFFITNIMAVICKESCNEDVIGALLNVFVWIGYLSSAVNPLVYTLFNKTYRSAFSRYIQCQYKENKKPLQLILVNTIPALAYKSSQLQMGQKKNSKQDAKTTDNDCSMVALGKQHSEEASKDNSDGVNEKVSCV

For the molecule `CCNCC1CC2=C(O1)c1cc(F)ccc1Cc1ccccc12` (single isomer, unassigned) [Compound 15], the IC50 in assay [1] is 0.794 nM; in assay [2] it was 3.16 nM; in assay [3], 39.8 nM.
For `CCNCC1CC2=C(O1)c1cc(F)ccc1Cc1ccccc12` (single isomer, unassigned) [Compound 16] the same measures were 12.6 nM, 158 nM and 316 nM.
As to `CNCC1CC2=C(O1)c1ccccc1C(C)c1ccccc12` (stereo not drawn) [Compound 10], the IC50 in assay [1] was 25.1 nM; in assay [2], 50.1 nM; in assay [3], 1580 nM.
On to `CCNCC1CC2=C(O1)c1cc(Br)ccc1Cc1ccccc12` (stereo not drawn) [Compound 17], for which the IC50 in assay [1] was 1.26 nM; in assay [2] it was 100 nM; in assay [3], 25.1 nM.
`OCCNCC1CC2=C(O1)c1cc(Br)ccc1Cc1ccccc12` (stereo not drawn) [Compound 20]: the IC50 in assay [1] is 1.58 nM; in assay [2], 501 nM; in assay [3], 31.6 nM.
On to `CN(C)CC1CC2=C(O1)c1cc(Br)ccc1Cc1ccccc12` (stereo not drawn) [Compound 21], for which the IC50 in assay [1] is 0.794 nM; in assay [2] it was 251 nM; in assay [3], 15.8 nM.
For `CN(C)C1CCN(CC2CC3=C(O2)c2cc(F)ccc2Cc2ccccc23)C1` (stereo not drawn) [Compound 35], the IC50 was 15.8 nM in assay [1], over 10000 nM in assay [2] and 39.8 nM in assay [3].
Consider `Fc1ccc2c(c1)C1=C(CC(CN3CCC4(CC3)OCCO4)O1)c1ccccc1C2` (stereo not drawn) [Compound 39], for which the IC50 in assay [1] was 50.1 nM; in assay [2] it was over 10000 nM; in assay [3] it was 50.1 nM.
As for `Fc1ccc2c(c1)C1=C(CC(CN3CCOCC3)O1)c1ccccc1C2` (stereo not drawn) [Compound 43], the figures for the IC50 in assay [1], in assay [2] and in assay [3] were 20 nM, 1580 nM and 79.4 nM, respectively.
With `CS(=O)(=O)N1CCN(CC2CC3=C(O2)c2cc(F)ccc2Cc2ccccc23)CC1` (stereo not drawn) [Compound 44], the results for the IC50 in assay [1], in assay [2] and in assay [3] were 50.1 nM, over 10000 nM and 158 nM, respectively.
As for `CCS(=O)(=O)N1CCN(CC2CC3=C(O2)c2cc(F)ccc2Cc2ccccc23)CC1` (stereo not drawn) [Compound 46], the IC50 in assay [1] is 200 nM; in assay [2] it was over 10000 nM; in assay [3] it was 501 nM.
For `O=C(C1CC1)N1CCN(CC2CC3=C(O2)c2cc(F)ccc2Oc2ccccc23)CC1` (stereo not drawn) [Compound 58] the same measures were 158 nM, 1580 nM and 1580 nM.
As to `CCOC(=O)N1CCN(CC2CC3=C(O2)c2cc(F)ccc2Cc2ccccc23)CC1` (stereo not drawn) [Compound 61], the IC50 in assay [4] is 10 nM; in assay [1] it was 20 nM; in assay [3], 200 nM.
For `CCOC(=O)N1CCN(CC2CC3=C(O2)c2cc(F)ccc2Oc2ccccc23)CC1` (stereo not drawn) [Compound 62], the IC50 in assay [4] is 79.4 nM; in assay [1], 200 nM; in assay [3], 631 nM.
Consider `COc1ccc(C(=O)N2CCN(CC3CC4=C(O3)c3cc(F)ccc3Oc3ccccc34)CC2)cc1` (stereo not drawn) [Compound 74], for which the values for the IC50 in assay [4], in assay [1] and in assay [3] were 12.6 nM, 100 nM and 251 nM, respectively.
Turning to `CN(C)C(=O)N1CCN(CC2CC3=C(O2)c2cc(F)ccc2Cc2ccccc23)CC1` (stereo not drawn) [Compound 75], the IC50 in assay [4] was 50.1 nM; in assay [1] it was 316 nM; in assay [3], 794 nM.
Take `CN(C)C(=O)N1CCN(CC2CC3=C(O2)c2cc(F)ccc2Oc2ccccc23)CC1` (stereo not drawn) [Compound 76]: the IC50 is 50.1 nM in assay [4], 158 nM in assay [1] and 251 nM in assay [3].
As to `O=C(NC1CCCCC1)N1CCN(CC2CC3=C(O2)c2cc(F)ccc2Oc2ccccc23)CC1` (stereo not drawn) [Compound 80], the IC50 in assay [4] is 39.8 nM; in assay [1] it was 79.4 nM; in assay [3] it was 1000 nM.
Consider `CCOC(=O)CNC(=O)N1CCN(CC2CC3=C(O2)c2cc(F)ccc2Oc2ccccc23)CC1` (stereo not drawn) [Compound 82], for which the IC50 in assay [4] is 39.8 nM; in assay [1], 158 nM; in assay [3], 1580 nM.
On to `O=C(Nc1ccccc1)N1CCN(CC2CC3=C(O2)c2cc(F)ccc2Cc2ccccc23)CC1` (stereo not drawn) [Compound 83], for which the values for the IC50 in assay [4], in assay [1] and in assay [3] were 10 nM, 10 nM and 251 nM, respectively.
As to `O=C(Nc1ccccc1)N1CCN(CC2CC3=C(O2)c2cc(F)ccc2Oc2ccccc23)CC1` (stereo not drawn) [Compound 84], the IC50 in assay [4] was 31.6 nM; in assay [1], 50.1 nM; in assay [3] it was 1000 nM.
For `COc1ccc(NC(=O)N2CCN(CC3CC4=C(O3)c3cc(F)ccc3Cc3ccccc34)CC2)cc1` (stereo not drawn) [Compound 89] the same measures were 2 nM, 3.16 nM and 39.8 nM.
For `COc1ccc(NC(=O)N2CCN(CC3CC4=C(O3)c3cc(F)ccc3Oc3ccccc34)CC2)cc1` (stereo not drawn) [Compound 90] the same measures were 6.31 nM, 31.6 nM and 501 nM.
Regarding `COc1ccccc1NC[C@@H]1CC2=C(O1)c1cc(F)ccc1Cc1ccccc12` [Compound 106], the values for the IC50 in assay [4], in assay [1] and in assay [3] were 6.31 nM, 31.6 nM and over 10000 nM, respectively.
`CN(CC(=O)c1ccccc1)C[C@H]1CC2=C(O1)c1cc(F)ccc1Cc1ccccc12` [Compound 114]: the IC50 is 3.16 nM in assay [4], 1.58 nM in assay [1] and 794 nM in assay [3].
As to `CN(CC(N)=O)C[C@H]1CC2=C(O1)c1cc(F)ccc1Cc1ccccc12` [Compound 115], the values for the IC50 in assay [4], in assay [1] and in assay [3] were 10 nM, 3.98 nM and 1260 nM, respectively.
Turning to `CN(CC(=O)N(C)C)C[C@H]1CC2=C(O1)c1cc(F)ccc1Cc1ccccc12` [Compound 117], the IC50 was 10 nM in assay [4], 2 nM in assay [1] and 2510 nM in assay [3].
For `CN(CC(=O)Nc1ccccc1)C[C@H]1CC2=C(O1)c1cc(F)ccc1Cc1ccccc12` [Compound 118] the same measures were 50.1 nM, 10 nM and 794 nM.
In the case of `COc1ccccc1NC(=O)CN(C)C[C@H]1CC2=C(O1)c1cc(F)ccc1Cc1ccccc12` [Compound 119], the IC50 in assay [4] is 31.6 nM; in assay [1], 25.1 nM; in assay [3], 7940 nM.
`CNC(=O)/C=C/CN(C)C[C@H]1CC2=C(O1)c1cc(F)ccc1Cc1ccccc12` [Compound 123]: the IC50 in assay [4] was 2 nM; in assay [1], 2 nM; in assay [3] it was 50.1 nM.
On to `CN(Cc1nnn[nH]1)C[C@H]1CC2=C(O1)c1cc(F)ccc1Cc1ccccc12` [Compound 125], for which the values for the IC50 in assay [4], in assay [1] and in assay [3] were 3.16 nM, 2.51 nM and 1260 nM, respectively.
Take `CNC(=N)CN(C)CC1CC2=C(O1)c1cc(F)ccc1Cc1ccccc12` (stereo not drawn) [Compound 138]: the IC50 was 12.6 nM in assay [4], 6.31 nM in assay [1] and 3160 nM in assay [3].

These data come from US8022102B2, “Unsaturated tetracyclic tetrahydrofuran derivatives” (Janssen Pharmaceutica, NV, priority 2004, dated 2011).
